PMC5343665, “Cytochrome P450s in human immune cells regulate IL-22 and c-Kit via an AHR feedback loop” (Scientific Reports, 2017)
pIC50: −log10 of the molar value.

Experiments:
Type in all cases: cell-based
[1] = biological target: T1, CYP1A2 (Homo sapiens, UniProt P05177); test: EROD (ethoxyresorufin deethylase) assay in V79 cells expressing human CYP1A2
T1 sequence (P05177 2-516): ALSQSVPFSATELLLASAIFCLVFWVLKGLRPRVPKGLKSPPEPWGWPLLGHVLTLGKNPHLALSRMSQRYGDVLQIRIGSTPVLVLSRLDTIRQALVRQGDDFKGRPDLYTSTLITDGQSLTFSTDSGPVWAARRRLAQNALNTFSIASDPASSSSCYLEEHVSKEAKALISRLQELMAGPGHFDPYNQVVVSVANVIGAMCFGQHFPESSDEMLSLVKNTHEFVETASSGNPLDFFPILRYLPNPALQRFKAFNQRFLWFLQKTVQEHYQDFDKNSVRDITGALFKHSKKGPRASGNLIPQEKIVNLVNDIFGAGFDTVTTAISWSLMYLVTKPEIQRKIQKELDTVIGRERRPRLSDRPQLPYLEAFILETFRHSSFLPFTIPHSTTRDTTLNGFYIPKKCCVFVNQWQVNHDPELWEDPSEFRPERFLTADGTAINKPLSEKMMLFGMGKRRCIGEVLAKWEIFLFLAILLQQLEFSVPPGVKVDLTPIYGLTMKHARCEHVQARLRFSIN

[2] = biological target: T2, CYP1B1 (Homo sapiens, UniProt Q16678); test: EROD (ethoxyresorufin deethylase) assay in V79 cells expressing human CYP1B1
T2 sequence (Q16678 1-543): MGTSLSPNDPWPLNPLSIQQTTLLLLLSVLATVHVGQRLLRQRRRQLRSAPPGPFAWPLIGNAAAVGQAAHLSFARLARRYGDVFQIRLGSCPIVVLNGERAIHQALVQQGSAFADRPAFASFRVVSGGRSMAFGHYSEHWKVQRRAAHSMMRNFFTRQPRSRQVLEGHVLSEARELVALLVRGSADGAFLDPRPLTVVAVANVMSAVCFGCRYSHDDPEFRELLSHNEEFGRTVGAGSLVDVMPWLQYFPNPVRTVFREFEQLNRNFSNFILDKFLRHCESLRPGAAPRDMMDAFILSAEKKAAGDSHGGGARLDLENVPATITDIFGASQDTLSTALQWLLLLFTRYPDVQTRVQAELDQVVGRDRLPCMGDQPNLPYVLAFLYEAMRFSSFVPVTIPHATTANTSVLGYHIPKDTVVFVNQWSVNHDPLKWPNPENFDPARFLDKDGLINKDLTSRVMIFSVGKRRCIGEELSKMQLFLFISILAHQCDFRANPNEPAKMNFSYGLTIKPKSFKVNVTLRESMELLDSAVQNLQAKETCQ

[3] = biological target: T3, CYP1A1 (Homo sapiens, UniProt P04798); test: EROD (ethoxyresorufin deethylase) assay in V79 cells expressing human CYP1A1
T3 sequence (P04798 1-512): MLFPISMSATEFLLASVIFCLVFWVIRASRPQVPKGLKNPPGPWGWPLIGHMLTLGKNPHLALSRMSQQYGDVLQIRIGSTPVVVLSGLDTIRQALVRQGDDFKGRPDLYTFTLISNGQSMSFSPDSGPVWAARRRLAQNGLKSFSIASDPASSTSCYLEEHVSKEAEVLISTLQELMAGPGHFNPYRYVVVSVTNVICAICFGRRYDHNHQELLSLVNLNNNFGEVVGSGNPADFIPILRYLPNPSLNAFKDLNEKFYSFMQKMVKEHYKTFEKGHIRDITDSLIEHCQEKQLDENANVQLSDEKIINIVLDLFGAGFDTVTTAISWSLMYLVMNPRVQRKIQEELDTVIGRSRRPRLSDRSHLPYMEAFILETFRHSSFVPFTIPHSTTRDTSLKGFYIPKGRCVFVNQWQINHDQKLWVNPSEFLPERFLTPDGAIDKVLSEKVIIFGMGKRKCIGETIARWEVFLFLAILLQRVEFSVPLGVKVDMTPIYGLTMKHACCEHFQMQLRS

CC#Cc1ccc2ccc3cccc4ccc1c2c34 [1-PP, 1-(1-propynyl)-pyrene] gave a pIC50 [1] of 6.19, a pIC50 [2] of 6.66 and a pIC50 [3] of 8.30.
